Our source for the AC50 values is ChEMBL document CHEMBL5291721, “A preclinical secondary pharmacology resource illuminates target-adverse drug reaction associations of marketed drugs” (Nat Commun, 2023).

In assay [1] the target is cGMP-inhibited 3',5'-cyclic phosphodiesterase 3A (Homo sapiens, UniProt Q14432). The format is functional.
A further assay has as its target D(3) dopamine receptor (Homo sapiens, UniProt P35462).
Assay [2] addresses Voltage-gated inwardly rectifying potassium channel KCNH2 (Homo sapiens, UniProt Q12809). In kind it is functional. Conditions: read-out: AC50.
The target of assay [3] is 5-hydroxytryptamine receptor 2B (Homo sapiens, UniProt P41595). In kind it is functional, cell-based.
5-hydroxytryptamine receptor 2B, sequence (P41595 whole entry): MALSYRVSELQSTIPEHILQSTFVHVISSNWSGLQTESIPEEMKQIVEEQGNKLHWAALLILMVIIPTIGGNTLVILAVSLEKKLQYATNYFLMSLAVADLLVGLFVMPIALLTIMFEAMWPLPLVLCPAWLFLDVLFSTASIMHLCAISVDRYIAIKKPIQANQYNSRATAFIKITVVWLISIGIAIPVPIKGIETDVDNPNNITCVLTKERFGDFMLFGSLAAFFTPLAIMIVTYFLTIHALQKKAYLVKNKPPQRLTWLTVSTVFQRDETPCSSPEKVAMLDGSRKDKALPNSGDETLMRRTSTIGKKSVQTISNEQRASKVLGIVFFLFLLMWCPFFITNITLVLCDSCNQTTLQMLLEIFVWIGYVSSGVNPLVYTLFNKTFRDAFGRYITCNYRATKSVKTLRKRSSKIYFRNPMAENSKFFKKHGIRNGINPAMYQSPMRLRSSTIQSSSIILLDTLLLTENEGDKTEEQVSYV
Assay [4] has as its target Prostaglandin G/H synthase 1 (Homo sapiens, UniProt P23219). In kind it is functional.
The target in assay [5] is 3',5'-cyclic-AMP phosphodiesterase 4A (Homo sapiens, UniProt P27815). In kind it is functional.
3',5'-cyclic-AMP phosphodiesterase 4A, sequence (P27815 whole entry): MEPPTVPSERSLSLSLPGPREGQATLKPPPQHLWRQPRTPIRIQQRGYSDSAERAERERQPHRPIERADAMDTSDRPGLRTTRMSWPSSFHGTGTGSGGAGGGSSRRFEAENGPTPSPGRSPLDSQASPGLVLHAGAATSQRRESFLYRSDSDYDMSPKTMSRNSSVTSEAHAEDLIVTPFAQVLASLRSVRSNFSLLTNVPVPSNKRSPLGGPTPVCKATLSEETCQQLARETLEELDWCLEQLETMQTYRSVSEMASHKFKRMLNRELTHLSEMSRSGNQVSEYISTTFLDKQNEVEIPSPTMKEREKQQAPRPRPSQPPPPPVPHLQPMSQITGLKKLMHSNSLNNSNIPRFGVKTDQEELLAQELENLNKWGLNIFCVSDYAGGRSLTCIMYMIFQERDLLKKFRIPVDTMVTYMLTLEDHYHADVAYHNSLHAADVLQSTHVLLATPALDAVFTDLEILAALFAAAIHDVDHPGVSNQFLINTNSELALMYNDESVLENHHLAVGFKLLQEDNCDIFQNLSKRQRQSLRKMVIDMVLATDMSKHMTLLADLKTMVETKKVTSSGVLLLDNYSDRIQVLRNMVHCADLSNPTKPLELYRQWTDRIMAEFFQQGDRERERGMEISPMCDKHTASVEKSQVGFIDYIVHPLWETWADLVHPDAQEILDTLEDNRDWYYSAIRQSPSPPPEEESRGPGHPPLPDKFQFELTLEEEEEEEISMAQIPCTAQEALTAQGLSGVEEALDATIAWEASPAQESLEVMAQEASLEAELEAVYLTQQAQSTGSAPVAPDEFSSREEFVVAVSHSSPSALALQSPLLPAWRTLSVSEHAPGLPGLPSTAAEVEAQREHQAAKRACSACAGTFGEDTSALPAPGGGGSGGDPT
For assay [6], the target named is T1, Alpha-2A adrenergic receptor (Homo sapiens, UniProt P08913).
T1 sequence (P08913 whole entry): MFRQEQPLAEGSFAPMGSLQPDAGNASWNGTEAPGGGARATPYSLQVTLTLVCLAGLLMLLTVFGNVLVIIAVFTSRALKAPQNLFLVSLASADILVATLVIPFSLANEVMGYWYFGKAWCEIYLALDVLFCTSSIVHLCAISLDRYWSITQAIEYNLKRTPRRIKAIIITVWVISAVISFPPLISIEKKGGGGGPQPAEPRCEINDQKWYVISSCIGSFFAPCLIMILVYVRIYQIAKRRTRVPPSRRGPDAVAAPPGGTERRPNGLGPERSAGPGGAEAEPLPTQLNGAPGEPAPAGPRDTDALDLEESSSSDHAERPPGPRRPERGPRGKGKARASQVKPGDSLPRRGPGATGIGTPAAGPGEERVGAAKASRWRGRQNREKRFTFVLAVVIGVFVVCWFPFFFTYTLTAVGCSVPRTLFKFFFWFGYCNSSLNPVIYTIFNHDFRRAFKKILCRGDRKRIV

The target in assay [7] is Sodium-dependent serotonin transporter (Homo sapiens, UniProt P31645).
Another assay concerns the target T2, Adenosine receptor A3 (Homo sapiens, UniProt P0DMS8).
T2 sequence (P0DMS8 whole entry): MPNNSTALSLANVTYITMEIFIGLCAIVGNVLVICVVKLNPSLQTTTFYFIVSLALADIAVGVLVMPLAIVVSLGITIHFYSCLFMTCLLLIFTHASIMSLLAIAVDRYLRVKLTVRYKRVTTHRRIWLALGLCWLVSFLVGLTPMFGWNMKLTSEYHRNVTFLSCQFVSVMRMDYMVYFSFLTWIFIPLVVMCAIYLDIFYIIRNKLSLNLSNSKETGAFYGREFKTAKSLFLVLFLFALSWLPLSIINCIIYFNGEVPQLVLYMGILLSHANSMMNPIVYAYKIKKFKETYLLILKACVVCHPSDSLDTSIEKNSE

For the next assay, the target named is Prothrombin (Homo sapiens, UniProt P00734). In kind it is functional.
A further assay has as its target T3, Progesterone receptor (Homo sapiens, UniProt P06401).
T3 sequence (P06401 whole entry): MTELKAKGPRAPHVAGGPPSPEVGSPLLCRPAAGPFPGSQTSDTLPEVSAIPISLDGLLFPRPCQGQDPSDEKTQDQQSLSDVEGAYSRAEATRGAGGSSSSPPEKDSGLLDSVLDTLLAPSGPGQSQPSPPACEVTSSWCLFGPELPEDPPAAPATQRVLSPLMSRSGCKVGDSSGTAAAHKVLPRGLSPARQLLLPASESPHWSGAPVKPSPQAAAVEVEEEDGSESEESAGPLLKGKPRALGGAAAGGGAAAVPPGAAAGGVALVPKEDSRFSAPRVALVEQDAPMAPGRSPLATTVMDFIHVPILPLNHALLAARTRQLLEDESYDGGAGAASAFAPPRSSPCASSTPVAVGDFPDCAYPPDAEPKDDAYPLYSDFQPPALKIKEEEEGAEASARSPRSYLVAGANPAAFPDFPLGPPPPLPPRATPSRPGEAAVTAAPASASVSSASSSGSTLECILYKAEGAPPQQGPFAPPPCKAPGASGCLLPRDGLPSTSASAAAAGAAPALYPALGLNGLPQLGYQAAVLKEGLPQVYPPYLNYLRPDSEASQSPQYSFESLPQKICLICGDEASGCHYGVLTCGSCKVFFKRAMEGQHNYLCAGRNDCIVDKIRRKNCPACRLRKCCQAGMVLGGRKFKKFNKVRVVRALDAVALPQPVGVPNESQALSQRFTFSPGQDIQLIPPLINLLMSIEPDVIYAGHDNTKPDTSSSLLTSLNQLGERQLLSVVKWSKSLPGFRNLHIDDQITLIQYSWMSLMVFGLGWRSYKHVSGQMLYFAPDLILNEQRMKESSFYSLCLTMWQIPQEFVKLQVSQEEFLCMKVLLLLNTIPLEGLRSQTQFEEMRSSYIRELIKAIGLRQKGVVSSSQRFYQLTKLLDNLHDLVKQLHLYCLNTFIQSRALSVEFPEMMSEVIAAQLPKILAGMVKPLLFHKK

The target of assay [8] is T4, Muscarinic acetylcholine receptor M2 (Homo sapiens, UniProt P08172).
T4 sequence (P08172 whole entry): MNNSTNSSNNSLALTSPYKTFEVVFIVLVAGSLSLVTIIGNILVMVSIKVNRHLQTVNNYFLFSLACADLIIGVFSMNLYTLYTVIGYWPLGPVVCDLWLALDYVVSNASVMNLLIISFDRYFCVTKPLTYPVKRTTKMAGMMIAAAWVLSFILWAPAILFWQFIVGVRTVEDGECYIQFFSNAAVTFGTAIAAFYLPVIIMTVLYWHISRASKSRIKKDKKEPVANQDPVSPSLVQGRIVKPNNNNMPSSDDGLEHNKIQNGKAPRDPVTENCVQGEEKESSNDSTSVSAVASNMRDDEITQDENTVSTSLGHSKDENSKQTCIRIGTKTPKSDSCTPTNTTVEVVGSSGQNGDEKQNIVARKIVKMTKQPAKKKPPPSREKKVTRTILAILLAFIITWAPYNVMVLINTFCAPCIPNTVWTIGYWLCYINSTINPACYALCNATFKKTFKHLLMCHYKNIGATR
Also: assay procedure not described here.

D(3) dopamine receptor, sequence (P35462 whole entry): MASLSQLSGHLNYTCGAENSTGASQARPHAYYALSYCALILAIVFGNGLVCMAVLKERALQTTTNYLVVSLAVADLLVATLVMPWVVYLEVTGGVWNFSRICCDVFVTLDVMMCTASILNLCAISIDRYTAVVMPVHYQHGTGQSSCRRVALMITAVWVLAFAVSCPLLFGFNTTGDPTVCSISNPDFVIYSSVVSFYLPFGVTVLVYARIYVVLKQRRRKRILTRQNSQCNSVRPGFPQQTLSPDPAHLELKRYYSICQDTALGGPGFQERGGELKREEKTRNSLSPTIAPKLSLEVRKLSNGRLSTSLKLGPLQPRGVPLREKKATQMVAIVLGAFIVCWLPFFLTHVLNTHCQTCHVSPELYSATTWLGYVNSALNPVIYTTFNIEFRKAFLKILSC
Voltage-gated inwardly rectifying potassium channel KCNH2, sequence (Q12809 whole entry): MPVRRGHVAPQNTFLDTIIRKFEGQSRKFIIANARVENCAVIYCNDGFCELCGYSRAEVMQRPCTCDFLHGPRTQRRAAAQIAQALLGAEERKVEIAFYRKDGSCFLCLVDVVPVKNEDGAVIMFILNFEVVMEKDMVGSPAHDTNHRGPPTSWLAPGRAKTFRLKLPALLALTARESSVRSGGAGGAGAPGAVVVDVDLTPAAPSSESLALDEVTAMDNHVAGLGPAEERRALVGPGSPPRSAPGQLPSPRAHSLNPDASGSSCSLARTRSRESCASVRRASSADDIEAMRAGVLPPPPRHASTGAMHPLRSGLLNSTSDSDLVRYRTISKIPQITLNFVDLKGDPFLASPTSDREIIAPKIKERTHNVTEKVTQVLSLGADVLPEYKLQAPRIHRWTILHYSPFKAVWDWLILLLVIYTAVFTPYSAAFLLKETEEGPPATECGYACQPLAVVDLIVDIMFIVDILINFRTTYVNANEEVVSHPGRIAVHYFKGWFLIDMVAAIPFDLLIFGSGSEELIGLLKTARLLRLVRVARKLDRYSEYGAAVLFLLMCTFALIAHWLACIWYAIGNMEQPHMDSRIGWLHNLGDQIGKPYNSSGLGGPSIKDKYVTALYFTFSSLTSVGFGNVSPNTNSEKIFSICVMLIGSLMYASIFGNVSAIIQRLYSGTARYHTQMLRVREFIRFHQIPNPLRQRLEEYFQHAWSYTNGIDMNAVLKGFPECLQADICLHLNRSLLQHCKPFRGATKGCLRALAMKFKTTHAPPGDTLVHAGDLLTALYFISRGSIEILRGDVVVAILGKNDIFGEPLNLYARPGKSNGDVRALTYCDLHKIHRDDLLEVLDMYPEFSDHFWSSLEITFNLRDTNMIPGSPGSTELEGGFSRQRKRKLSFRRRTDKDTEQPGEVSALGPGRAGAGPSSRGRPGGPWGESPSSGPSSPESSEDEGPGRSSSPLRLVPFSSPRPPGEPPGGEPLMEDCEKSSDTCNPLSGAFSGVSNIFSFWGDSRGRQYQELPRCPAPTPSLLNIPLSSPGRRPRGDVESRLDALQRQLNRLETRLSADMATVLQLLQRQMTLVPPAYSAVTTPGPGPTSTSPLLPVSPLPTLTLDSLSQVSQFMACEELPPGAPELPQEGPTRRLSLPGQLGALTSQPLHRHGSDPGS
cGMP-inhibited 3',5'-cyclic phosphodiesterase 3A, sequence (Q14432 whole entry): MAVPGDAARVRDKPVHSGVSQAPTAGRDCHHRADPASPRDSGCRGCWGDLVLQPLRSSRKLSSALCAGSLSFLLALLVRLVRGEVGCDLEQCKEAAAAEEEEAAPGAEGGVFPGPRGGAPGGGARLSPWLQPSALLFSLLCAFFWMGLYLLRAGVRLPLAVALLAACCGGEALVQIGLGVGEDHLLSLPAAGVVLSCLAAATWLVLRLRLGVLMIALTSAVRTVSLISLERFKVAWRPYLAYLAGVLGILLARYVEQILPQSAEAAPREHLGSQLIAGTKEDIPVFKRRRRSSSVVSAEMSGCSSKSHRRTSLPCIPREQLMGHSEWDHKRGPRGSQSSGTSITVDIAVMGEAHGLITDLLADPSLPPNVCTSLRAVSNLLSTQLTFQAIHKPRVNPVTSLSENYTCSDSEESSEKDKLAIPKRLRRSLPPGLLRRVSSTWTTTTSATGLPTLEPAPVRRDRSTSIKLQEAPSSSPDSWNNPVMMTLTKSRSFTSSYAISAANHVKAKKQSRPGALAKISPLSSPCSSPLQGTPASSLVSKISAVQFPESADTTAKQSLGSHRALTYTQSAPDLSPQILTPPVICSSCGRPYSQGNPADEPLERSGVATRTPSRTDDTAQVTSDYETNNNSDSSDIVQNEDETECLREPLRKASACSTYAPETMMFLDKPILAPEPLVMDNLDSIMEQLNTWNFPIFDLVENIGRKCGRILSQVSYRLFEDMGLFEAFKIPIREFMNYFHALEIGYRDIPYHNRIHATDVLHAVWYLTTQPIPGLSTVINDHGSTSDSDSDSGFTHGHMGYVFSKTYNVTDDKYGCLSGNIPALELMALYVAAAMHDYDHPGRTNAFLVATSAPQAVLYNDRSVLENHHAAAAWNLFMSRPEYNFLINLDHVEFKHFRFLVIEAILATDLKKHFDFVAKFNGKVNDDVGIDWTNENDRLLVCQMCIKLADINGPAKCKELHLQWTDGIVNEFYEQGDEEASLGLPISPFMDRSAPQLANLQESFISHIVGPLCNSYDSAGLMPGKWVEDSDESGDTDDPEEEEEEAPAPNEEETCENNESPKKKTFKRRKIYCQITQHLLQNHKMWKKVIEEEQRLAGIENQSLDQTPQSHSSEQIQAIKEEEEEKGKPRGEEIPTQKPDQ
Prostaglandin G/H synthase 1, sequence (P23219 whole entry): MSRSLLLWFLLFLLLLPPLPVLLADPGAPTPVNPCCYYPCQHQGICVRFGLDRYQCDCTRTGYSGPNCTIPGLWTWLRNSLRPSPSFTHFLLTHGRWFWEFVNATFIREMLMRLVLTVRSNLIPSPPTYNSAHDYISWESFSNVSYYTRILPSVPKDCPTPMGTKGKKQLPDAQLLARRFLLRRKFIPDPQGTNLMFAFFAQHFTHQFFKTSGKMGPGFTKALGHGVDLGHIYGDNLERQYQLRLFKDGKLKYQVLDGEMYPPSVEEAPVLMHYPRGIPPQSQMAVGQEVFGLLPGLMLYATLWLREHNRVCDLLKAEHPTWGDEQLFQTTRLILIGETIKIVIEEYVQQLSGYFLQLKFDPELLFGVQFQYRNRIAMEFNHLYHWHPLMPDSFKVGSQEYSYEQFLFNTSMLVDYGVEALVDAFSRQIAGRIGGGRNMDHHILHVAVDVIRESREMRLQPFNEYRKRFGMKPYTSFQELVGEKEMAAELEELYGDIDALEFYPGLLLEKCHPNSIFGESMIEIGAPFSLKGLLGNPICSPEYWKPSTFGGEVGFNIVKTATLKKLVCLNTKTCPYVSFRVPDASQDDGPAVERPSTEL

As to `Cc1ccc2c([nH]c(=O)c3c(=O)cc(C(=O)OCCC(C)C)oc32)c1C`, the AC50 is above 30 µM in assay [1]; above 30 µM at D(3) dopamine receptor; 23 µM in assay [2]; above 10 µM in assay [3]; 21.3 µM in assay [4]; above 30 µM in assay [5]. For the same molecule, the AC50 in [6] was above 30 µM; in assay [7], above 30 µM; at Adenosine receptor A3, 0.0521 µM; on Prothrombin, above 30 µM; at Progesterone receptor, above 30 µM; in assay [8] it was 11.8 µM.

Regarding `Cc1cnc(C(=O)O)c[n+]1[O-]` [ACIPIMOX], the AC50 (in assay [1]; at D(3) dopamine receptor; in [2]; in assay [3]; in [4]; in assay [5]) was above 30 µM throughout. Also, the AC50 (in assay [6]; in assay [7]; at Adenosine receptor A3; at Prothrombin; at Progesterone receptor; in assay [8]) was above 30 µM in each case.

On to `CCCCC(=O)O[C@H]1CC[C@H]2[C@@H]3CCc4cc(O)ccc4[C@H]3CC[C@]12C` [ESTRADIOL VALERATE], for which the AC50 is 23.9 µM in assay [1]; above 30 µM on D(3) dopamine receptor; above 30 µM in assay [2]; above 30 µM in assay [3]; above 30 µM in [4]; above 10 µM in [5]. Moreover, the AC50 in assay [6] was above 30 µM; in assay [7], above 30 µM; on Adenosine receptor A3, 6.74 µM; at Prothrombin, above 30 µM; on Progesterone receptor, 0.234 µM; in [8], above 30 µM.

Consider `O=c1[nH]c(=O)n([C@H]2C[C@H](O)[C@@H](CO)O2)cc1/C=C/Br` [BRIVUDINE], for which the AC50 (in assay [1]; at D(3) dopamine receptor; in [2]; in assay [3]; in assay [4]; in assay [5]) was above 30 µM throughout. In addition, the AC50 (in [6]; in assay [7]; at Adenosine receptor A3; at Prothrombin; on Progesterone receptor; in assay [8]) was above 30 µM each time.

For the molecule `CC(NCCC(c1ccccc1)c1ccccc1)c1ccccc1` (configuration not stated) [FENDILINE], the AC50 in [1] was above 30 µM; at D(3) dopamine receptor, 9.87 µM; in [2], 1.3 µM; in [3], above 30 µM; in assay [4] it was above 30 µM; in assay [5], above 30 µM. Further, the AC50 was 5.89 µM in [6]; 7.94 µM in assay [7]; 26.8 µM at Adenosine receptor A3; above 3 µM at Prothrombin; above 30 µM at Progesterone receptor; 6.17 µM in assay [8].

As for `COc1cc(C[C@@H]2NCCc3cc(O)c(O)cc32)cc(OC)c1OC` [TRETOQUINOL], the AC50 in [1] was above 30 µM; on D(3) dopamine receptor it was 1.81 µM; in assay [2], above 30 µM; in assay [3] it was above 30 µM; in assay [4], 5.31 µM; in [5], above 30 µM. Besides, the AC50 in assay [6] was 0.829 µM; in assay [7], above 30 µM; on Adenosine receptor A3, above 30 µM; at Prothrombin, above 30 µM; on Progesterone receptor, above 30 µM; in assay [8], above 30 µM.

For the molecule `NC(=O)N/N=C/c1ccc([N+](=O)[O-])o1` [NITROFURAZONE], the AC50 is 29.8 µM in assay [1]; above 30 µM at D(3) dopamine receptor; above 30 µM in assay [2]; above 30 µM in [3]; above 30 µM in assay [4]; above 30 µM in assay [5]. Also, the AC50 (in assay [6]; in [7]; at Adenosine receptor A3; at Prothrombin; on Progesterone receptor; in assay [8]) was above 30 µM in each case.

As to `CC(C)N1CCOC(c2cccc(C(F)(F)F)c2)C1` (configuration not stated) [OXAFLOZANE], the AC50 in assay [1] is above 30 µM; on D(3) dopamine receptor, 1.65 µM; in [2], above 30 µM; in [3] it was 1.01 µM; in assay [4] it was above 30 µM; in [5] it was above 30 µM. Also, the AC50 was above 30 µM in [6]; above 30 µM in [7]; above 30 µM on Adenosine receptor A3; above 30 µM at Prothrombin; above 30 µM at Progesterone receptor; 23.5 µM in assay [8].

On to `CC(O)(CC(=O)O)CC(=O)O` [MEGLUTOL], for which the AC50 (in [1]; at D(3) dopamine receptor; in assay [2]; in assay [3]; in assay [4]; in assay [5]) was above 30 µM throughout. The AC50 (in assay [6]; in assay [7]; at Adenosine receptor A3; at Prothrombin; on Progesterone receptor; in assay [8]) was above 30 µM each time.

Turning to `Nc1ccn(C[C@@H](CO)OCP(=O)(O)O)c(=O)n1` [CIDOFOVIR], the AC50 (in assay [1]; at D(3) dopamine receptor; in [2]; in assay [3]; in [4]; in assay [5]) was above 30 µM in each case. For the same molecule, the AC50 (in assay [6]; in [7]; at Adenosine receptor A3; at Prothrombin; at Progesterone receptor; in [8]) was above 30 µM throughout.

For the molecule `[H]/N=C(/N)NS(=O)(=O)c1ccc(N)cc1` [SULFAGUANIDINE], the AC50 (in assay [1]; at D(3) dopamine receptor; in assay [2]; in [3]; in assay [4]; in assay [5]) was above 30 µM in each case. The AC50 (in [6]; in [7]; on Adenosine receptor A3; at Prothrombin; on Progesterone receptor; in assay [8]) was above 30 µM each time.
